Experimental data as given in patent publication US9314031B2, “Plant growth regulation” (SYNGENTA PARTICIPATIONS AG, priority 2012, dated 2016).

Columns and labels:
Winter-rye Rekrut = experiment: Glasshouse trial, lodging of winter rye after leaf spray; assay type: in vivo; conditions: for % lodging 30 days after spray application: Winter-rye Rekrut, spray at growth stage 30
Source text: (§1) A glasshouse trial was setup to compare growth regulation effects of trinexapac-ethyl, seaweed extract, and mixtures of trinexapac-ethyl and seaweed extract at various rates, on both summer barley (Pasadena) and winter rye (Reknit).
(§2) Each treatment was applied as a spray to the leaves of the plant at plant growth stage 30 (start of stem elongation).

[1] = tested on: soybeans (Toliman, S40-F8); experiment: Glasshouse trial, shoot length of soybeans after leaf spray; assay type: in vivo, soybean; conditions: for Shoot length 11 days after spray application: spray at growth stage 12
Source text: A glasshouse trial was setup to compare growth regulation effects of trinexapac-ethyl, seaweed extract, and mixtures of trinexapac-ethyl and seaweed extract at various rates, on two varieties of soybeans (Toliman, S40-F8).
Each treatment was applied as a spray to the leaves of the plant at plant growth stage 12 (trifoliolate leaf on the 2nd node unfolded).

[2] = tested on: soybeans (Toliman, S40-F8); experiment: Glasshouse trial, Nitrogen Balance Index (Dualex) of soybeans after leaf spray; assay type: in vivo, soybean; conditions: for Nitrogen Balance Index 8 days after spray application: spray at growth stage 12
Source text: A glasshouse trial was setup to compare crop enhancement effects of trinexapac-ethyl, seaweed extract, and mixtures of trinexapac-ethyl and seaweed extract at various rates, on two varieties of soybeans (Toliman, S40-F8)
Each treatment was applied as a spray to the leaves of the plant at plant growth stage 12 (trifoliolate leaf on the 2nd node unfolded). Assessments of the Nitrogen Balance Index (NBI) were made 8 days after spray application using a Dualex (Force-A, Orsay Cedex) device; NBI is a measure used to estimate the nitrogen and protein status of a plant.

summer barley (Pasadena) = experiment: Glasshouse trial, lodging of summer barley after leaf spray; assay type: in vivo; conditions: for % lodging 30 days after spray application: Summer-barley Pasadena, spray at growth stage 30
Source text: as §1, §2

[3] = treatment 1: Moddus 100 g AI/ha
[4] = treatment 2: Moddus 200 g AI/ha
[5] = Soybean var. S40-F8, treatment 1: Moddus 200 g AI/ha
[6] = Soybean var. S40-F8, treatment 2: Moddus 100 g AI/ha
[7] = Soybean var. S40-F8, treatment 3: Moddus 50 g AI/ha
[8] = Soybean var. Toliman, treatment 1: Moddus 200 g AI/ha
[9] = Soybean var. Toliman, treatment 2: Moddus 100 g AI/ha
[10] = Soybean var. Toliman, treatment 3: Moddus 50 g AI/ha

`CCOC(=O)C1CC(=O)C(=C(O)C2CC2)C(=O)C1` (centres unmarked) [TXP, trinexapac-ethyl] was tested, and the “% lodging 30 days after spray application” value (“% lodging 30 days” below) (Winter-rye Rekrut; [3]) was 6.7%, the “% lodging 30 days” value (Winter-rye Rekrut; [4]) was 0.0% and the “Effect on lodging, in words” value (Winter-rye Rekrut; winter rye, summary of Table 3, all rates, compared to untreated control or TXP alone) was “reduces lodging compared to the control”. The “Shoot length 11 days after spray application” value (“Shoot length 11 days” below) [1, 5] was 34.5 cm, the “Shoot length 11 days” value [1, 6] was 39.5 cm and the “Shoot length 11 days” value [1, 7] was 45.8 cm. For the same compound, the “Shoot length 11 days” value [1, 8] was 54.8 cm, the “Shoot length 11 days” value [1, 9] was 59.3 cm and the “Shoot length 11 days” value [1, 10] was 61.3 cm. The “Effect on plant length, in words” value ([1]; both soybean varieties, summary of Table 5, all rates, compared to untreated control or TXP alone) was “reduces plant length compared to the control”, the “Nitrogen Balance Index 8 days after spray application” value (“Nitrogen Balance Index 8 days” for short) [2, 5] was 125.5 and the “Nitrogen Balance Index 8 days” value [2, 6] was 97.9. For the same compound, the “Nitrogen Balance Index 8 days” value [2, 7] was 77.1, the “Nitrogen Balance Index 8 days” value [2, 8] was 64.2 and the “Nitrogen Balance Index 8 days” value [2, 9] was 48.7. The “Nitrogen Balance Index 8 days” value [2, 10] was 47.9, the “Effect on NBI, in words” value ([2]; both soybean varieties, summary of Table 7, compared to untreated control or single components) was “increases NBI at high rate” and the “% lodging 30 days” value (summer barley (Pasadena); [3]) was 10.0%. For the same compound, the “% lodging 30 days” value (summer barley (Pasadena); [4]) was 6.7% and the “Effect on lodging, in words” value (summer barley (Pasadena); summer barley, summary of Table 3, all rates, compared to untreated control or TXP alone) was “reduces lodging compared to the control”.
